The values that follow come from patent US6160166A, “Phosphonated agents and their antiangiogenic and antitumorigenic use” (priority 1999, dated 2000).

What is called IC50 is the concentration that gives 50% inhibition.

The conditions of data set [1]: cited from earlier work.
Data set [2] has as its system chick chorioallantoic membrane (CAM). Nature of the data set: Chick egg chorioallantoic membrane (CAM) assay, 6-day, growing vessels: inhibition of angiogenesis. The format is in vivo. The following applies: for antiangiogenic activity relative to suramin: CAM assay / inhibition of angiogenesis, versus suramin; for inhibition of angiogenesis in the 6-day CAM, in words: rapidly growing vessels; for inhibition in vivo at 70 nmol: Gallus gallus, Tables 1 and 2, dose not given, Em = number of embryos, read-out: % Ih (Inhibition). An excerpt: The purpose of this experiment was to test the ability of the phosphonic acid agents described above to inhibit angiogenesis. […]
(§1) Comparison of the inhibition of angiogenesis by 70 nmol of
(§2) suramin or a equimolar amount of a phosphonic acid agents in the
(§3) 6-day and 11-day chick egg chorioallantoic (CAM) assay.

For the next data set, the system named is MMP-2. The data set can be described thus: MMP-2 activity by zymography, human microvascular endothelial cells. It is filed as cell-based. The following applies: for inhibition of MMP-2 activity: human microvascular endothelial cells, zymography; for inhibition of bFGF-induced increase in MMP-2 activity: with bFGF. An excerpt: Matrix metalloproteinases are an important group of zinc enzymes responsible for the degradation of the extracellular matrix components, such as collagen and proteoglycans. Currently, 16 family members have been identified. MMP family member differ from each other structurally by the presence or absence of domains that contribute to activities such as substrate specificity, inhibitor binding, matrix binding and cell surface localization (Powell and Matrisian, 1996). To determine if the phosphonic acid agents were effective inhibitors of the MMP's of endothelial cells, cells were incubated in the presence of the different agents for 48 hours. Tissue samples were taken and subjected to zymography. Tissue samples were placed in glass homogenizers in a three fold weight/volume of lysis buffer consisting of 50 mM Tris-HCL, pH=7.4, with 200 mM sodium chloride and 0.1% Triton X-100. The samples were homogenized and centrifuged at 1500 g for 20 min. The supernatant was immediately analyzed by zymography. Protein content of each sample was determined by a modified Lowry method.
MMP enzyme activity was detected using polyacrylamide gel eltrophoresis zymography. SDS-polyacrylamide gel electrophoresis (PAGE) was performed using 8% acrylamide gels containing 0.1% gelatin. The volume of test samples loaded was 15 μl. Electrophoresis was run at 4° C. at a constant voltage (100 volts). After electrophoresis, gels were incubated in Triton X-100 (2.5%) for 30 minutes to eliminate SDS, prior to being incubated overnight in 50 mM Tris HCL, pH7.5, containing 10 mM CaCl2 at 37° C. The gels were stained in 0.25% (W/v) Coomassie Brilliant Blue and destained in methanol:acetic acid:water (50:40:10). The clear zones in these gels indicates the presence of proteins with gelatinolytic activity. This method allows for identification of pro-metalloproteinases.Migration position of proteins and with standard molecular weight and supernatant from HT 1080 cells that express MMP-2 and MMP-9 were used as controls.

The test system of data set [3] is human dermal microvascular and porcine pulmonary artery endothelial cells. Nature of the data set: bFGF-stimulated and non-stimulated endothelial cell growth (total protein, total DNA). The format is cell-based. As to conditions: 25 μM. An excerpt:
Suramin is a highly charged molecule with six sulfonate groups that are ionized at physiologic pH.

The test system of data set [4] is chick chorioallantoic membrane (CAM). Nature of the data set: Chick egg chorioallantoic membrane (CAM) assay, 11-day, established vessels. The format is in vivo. The following applies: for 11-day CAM % Inhibition: 70 nmol or equimolar amount; for inhibitory activity in the 11-day CAM, in words: established vessels. How it is done: According to Ausprunk et al. (1974), capillary angiogenesis in the CAM is completed by day 11. Measurements of intercapillary distances are also consistent with the cessation of capillary growth after day 10. […] The implants were prepared as previously described by Gagliardi et al. (1992), implanted on day 11 and read on day 13.
as §1, §2, §3

In data set [5] the test system is human dermal Microvascular endothelial cells. Nature of the data set: Inhibition of bFGF-stimulated growth of human microvascular endothelial cells. The format is cell-based. As to conditions: for IC50: Homo sapiens, Endothelial cell, bFGF-stimulated, estimated from dose response curve. How it is done: Inhibition of cell growth was evaluated by measuring total protein and total DNA and the IC50 was estimated for each dose response curve.

Data set [6] concerns different cancer cell lines. Nature of the data set: MTT cell proliferation, different cancer cell lines. The format is cell-based, human. As to conditions: cancer cell lines in vitro.

As for `CN1CCCC1=O` [N-methyl-2-pyrrolidone], in data set [1] (Wells et al.), the “toxicity in Ames type assays and chronic exposure studies” value is recorded as “have not revealed any significant toxicity”. In data set [1] (animal and human experiments), the “irritation or sensitization potential” value is “very little irritation or sensitization potential”.

Regarding `O=C(Nc1cccc(C(=O)Nc2cccc(C(=O)Nc3cccc(P(=O)(O)O)c3)c2)c1)Nc1cccc(C(=O)Nc2cccc(C(=O)Nc3cccc(P(=O)(O)O)c3)c2)c1` [NF 050], the “antiangiogenic activity relative to suramin” value in data set [2] is 2 to 4 times. In addition, in the data set with MMP-2, the “inhibition of MMP-2 activity” value was “potent inhibitors of MMP-2 activity” and the “inhibition of bFGF-induced increase in MMP-2 activity” value (from here on “inhibition of bFGF-induced increase”) is reported as “inhibited the increase in MMP-2 activity induced by bFGF”. In data set [3], the “effect on bFGF stimulation of endothelial cell growth” value (“effect on bFGF stimulation” below) is recorded as “inhibited the stimulation of endothelial cell growth by bFGF” and the “effect on total protein content versus unstimulated control” value is recorded as “significantly reduced total protein content far below the unstimulated control endothelial cells”.

As for `O=C(Nc1cccc(C(=O)Nc2ccc(P(=O)(O)O)cc2)c1)Nc1cccc(C(=O)Nc2ccc(P(=O)(O)O)cc2)c1` [NF 067], in data set [2], the “inhibition of angiogenesis in the 6-day CAM, in words” value (“inhibition of angiogenesis … in words” below) is given as “very potent inhibitors of angiogenesis”; the “antiangiogenic activity relative to suramin” value is on record as 2 to 4 times; the inhibition in vivo at 70 nmol was 62%. In addition, in data set [2] (CAM assay), the “ID50, dose that produces 50% inhibition of angiogenesis” value was found to be 32 nmol. Moreover, in data set [4], the “11-day CAM % Inhibition” value is listed as 0% and the “inhibitory activity in the 11-day CAM, in words” value (“inhibitory activity” for short) is recorded as “no significant inhibitory activity”. In addition, in data set [3], the “effect on bFGF stimulation” value is “inhibited the stimulation of endothelial cell growth by bFGF” and the “effect on total protein content versus unstimulated control” value is recorded as “significantly reduced total protein content far below the unstimulated control endothelial cells”. For the same molecule, the IC50 in data set [5] is 19.4 µM. In data set [5] (versus suramin, in vitro), the “potency relative to suramin, inhibition of endothelial cell growth” value amounted to 20 times. For the same molecule, the “antiproliferative activity, in words” value in data set [6] was “very low antiproliferative activity”.

With `O=C(Nc1cccc(C(=O)Nc2cccc(P(=O)(O)O)c2)c1)Nc1cccc(C(=O)Nc2cccc(P(=O)(O)O)c2)c1` [NF 068], in data set [2] (CAM assay), the “antiangiogenic activity relative to suramin or between groups, in words” value is “does not show any antiangiogenic activity”. The inhibition in vivo at 70 nmol in data set [2] was determined as 0%.

For `O=C(Nc1ccc(C(=O)Nc2cccc(P(=O)(O)O)c2)cc1)Nc1ccc(C(=O)Nc2cccc(P(=O)(O)O)c2)cc1` [NF 069], in data set [2], the “inhibition of angiogenesis … in words” value is on record as “very potent inhibitors of angiogenesis”; the “antiangiogenic activity relative to suramin” value is 4-8 times; the inhibition in vivo at 70 nmol was 66%. For the same molecule, the “ID50, dose that produces 50% inhibition of angiogenesis” value in data set [2] (CAM assay) is listed as 9 nmol. In data set [4], the “11-day CAM % Inhibition” value turned out to be 0% and the “inhibitory activity” value is listed as “no significant inhibitory activity”. Also, in data set [3], the “effect on bFGF stimulation” value is “inhibited the stimulation of endothelial cell growth by bFGF” and the “effect on total protein content versus unstimulated control” value was “significantly reduced total protein content far below the unstimulated control endothelial cells”. Also, in data set [5], the IC50 was 75 µM.

As for `O=C(Nc1cccc(P(=O)(O)O)c1)Nc1cccc(P(=O)(O)O)c1` [NF 158], the inhibition in vivo at 70 nmol in data set [2] worked out at 0%.

On to `O=C(Nc1ccc(P(=O)(O)O)cc1)Nc1ccc(P(=O)(O)O)cc1` [NF 161], for which, in data set [2], the “antiangiogenic activity relative to suramin” value is 2 to 4 times and the inhibition in vivo at 70 nmol is 53%. Also, in data set [3], the “effect on bFGF stimulation” value is recorded as “inhibited the stimulation of endothelial cell growth by bFGF” and the “effect on total protein content versus unstimulated control” value is given as “significantly reduced total protein content far below the unstimulated control endothelial cells”.

For `O=C(Nc1ccc(P(=O)(O)O)cc1)c1ccc(NC(=S)Nc2ccc(C(=O)Nc3ccc(P(=O)(O)O)cc3)cc2)cc1` [NF 162], in the data set on MMP-2, the “inhibition of MMP-2 activity” value is on record as “potent inhibitors of MMP-2 activity” and the “inhibition of bFGF-induced increase” value is recorded as “inhibited the increase in MMP-2 activity induced by bFGF”.

As to `O=C(Nc1ccc(P(=O)(O)O)cc1)c1cc(NC(=O)c2cccc([N+](=O)[O-])c2)cc(C(=O)Nc2ccc(P(=O)(O)O)cc2)c1` [NF 167], in data set [2], the “antiangiogenic activity relative to suramin” value lay in the range of 2 to 4 times. Moreover, in data set [3], the “effect on bFGF stimulation” value is “inhibited the stimulation of endothelial cell growth by bFGF” and the “effect on total protein content versus unstimulated control” value is listed as “significantly reduced total protein content far below the unstimulated control endothelial cells”.

As to `O=C(Nc1ccc(OC(=O)P(=O)(O)O)cc1)Nc1ccc(OC(=O)P(=O)(O)O)cc1` [NF 392], the inhibition in vivo at 70 nmol in data set [2] was 6%.

Consider `O=C(Nc1cccc(OC(=O)P(=O)(O)O)c1)Nc1cccc(OC(=O)P(=O)(O)O)c1` [NF 426], for which the inhibition in vivo at 70 nmol in data set [2] came out at 39%.

`O=C(Nc1ccc(NC(=O)P(=O)(O)O)cc1)Nc1ccc(NC(=O)P(=O)(O)O)cc1` [NF 428]: the “antiangiogenic activity relative to suramin” value in data set [2] lay in the range of 2 to 4 times. For the same molecule, in data set [3], the “effect on bFGF stimulation” value is on record as “inhibited the stimulation of endothelial cell growth by bFGF” and the “effect on total protein content versus unstimulated control” value is “significantly reduced total protein content far below the unstimulated control endothelial cells”.

As for `O=C(Nc1ccccc1OC(=O)P(=O)(O)O)Nc1ccccc1OC(=O)P(=O)(O)O` [NF 473], the inhibition in vivo at 70 nmol in data set [2] is 21%.

With `Cc1cc(NC(=O)Nc2ccc(OC(=O)P(=O)(O)O)c(C)c2)ccc1OC(=O)P(=O)(O)O` [NF 474], the inhibition in vivo at 70 nmol in data set [2] amounted to 12%.

On to `O=C(Nc1ccc(C(=O)Nc2ccc(P(=O)(O)O)cc2)cc1)Nc1ccc(C(=O)Nc2ccc(P(=O)(O)O)cc2)cc1` [NF 681], for which, in data set [2], the “inhibition of angiogenesis … in words” value was “very potent inhibitors of angiogenesis”; the “antiangiogenic activity relative to suramin” value is 4-8 times; the inhibition in vivo at 70 nmol turned out to be 100%. Moreover, the “ID50, dose that produces 50% inhibition of angiogenesis” value in data set [2] (CAM assay) amounted to 2 nmol. Besides, in the data set on MMP-2, the “inhibition of MMP-2 activity” value is recorded as “potent inhibitors of MMP-2 activity” and the “inhibition of bFGF-induced increase” value is on record as “inhibited the increase in MMP-2 activity induced by bFGF”. For the same molecule, in data set [4], the “11-day CAM % Inhibition” value is reported as 0% and the “inhibitory activity” value is reported as “no significant inhibitory activity”. Moreover, in data set [3], the “effect on bFGF stimulation” value is given as “inhibited the stimulation of endothelial cell growth by bFGF” and the “effect on total protein content versus unstimulated control” value is listed as “significantly reduced total protein content far below the unstimulated control endothelial cells”. Further, the IC50 in data set [5] is 1.5 µM.
